The values below come from article PMC7167990, “Therapeutic Effects of Atranorin towards the Proliferation of Babesia and Theileria Parasites” (Pathogens, 2020).

Usually IC50 stands for the point on the concentration scale where inhibition reaches its midpoint. As a reminder, the EC50 is the concentration that produces a half-maximal response.

One data set has as its system B. divergens. Kind of data set: Parasite viability test in vitro (regrowth after drug withdrawal, microscopy). The arrangement: key: a positive (+) indicates parasites regrowth; a negative (–) shows the parasites total clearance after drug pressure withdrawal using microscopy assay. It is filed as cell-based. The conditions noted are these: 4 days treatment, then drug-free culture. The procedure: (§1) The viability studies of ATR-treated parasites were monitored via microscopy as reported elsewhere. In a 96-well microtiter plate, an aliquot of 1% parasitemia (10 µL) of iRBCs was cultivated with 90 µL of respective media containing various concentrations of ATR and DA for 4 successive days with changing media daily. […] On the fifth day, a mixture of iRBCs (3 µL) from each well and fresh equine or bovine RBCs (7 µL) was transferred to another plate, cultured in a medium free from drug and then left for an additional six days. The total parasite clearance was recorded as negative, while the relapse of parasites was recorded as positive.

The test system of another data set is B. bovis. Described as above. The data set is classed as cell-based. The arrangement: key: a positive (+) indicates parasites regrowth; a negative (–) shows the parasites total clearance after drug pressure withdrawal using microscopy assay. Conditions: 4 days treatment, then drug-free culture. The protocol: as §1
A further data set concerns T. equi. Described as above. It is filed as cell-based. The arrangement: key: a positive (+) indicates parasites regrowth; a negative (–) shows the parasites total clearance after drug pressure withdrawal using microscopy assay. Conditions: 4 days treatment, then drug-free culture. The procedure:
as §1

Another data set relates to B. caballi. The description is as above. The data set is classed as cell-based. The arrangement: key: a positive (+) indicates parasites regrowth; a negative (–) shows the parasites total clearance after drug pressure withdrawal using microscopy assay. The conditions noted are these: 4 days treatment, then drug-free culture. The protocol:
as §1

The test system of another data set is B. bigemina. The description is as above. The arrangement: key: a positive (+) indicates parasites regrowth; a negative (–) shows the parasites total clearance after drug pressure withdrawal using microscopy assay. It is filed as cell-based. Conditions: 4 days treatment, then drug-free culture. The procedure: as §1
The next data set relates to hepatitis C virus (HCV). The arrangement: method as in PMID 25793970. Conditions: antiviral activity against hepatitis C virus (HCV); cited from earlier work.
Data set [1] deals with LLC/MK2 monkey kidney epithelial cells. The arrangement: method as in PMID 21487780. Conditions: cited from earlier work.
Data set [2] relates to bovine RBCs (B. divergens). Briefly: Impact of ATR pretreatment of bovine RBCs on later parasite proliferation. The data set is classed as cell-based. Conditions: 400 µM ATR for 3 and 6 h, then B. divergens subculture. The protocol: (§2) Prior to parasite subculture, a concentration of 400 µM of ATR was mixed with fresh bovine and equine RBCs and incubated at a humidified incubator for 3 and 6 h. Afterward, the pretreated-RBCs were mixed with B. divergens and T. equi infected RBCs (iRBCs) after washing thrice with PBS to achieve 1% parasitemia. Thereafter, using a 24-well plate, an aliquot of iRBCs (100 μL) was mixed with culture media (900 μL); the control RBCs were left untreated. To monitor the parasitemia and any side effects due to the pretreatment, Giemsa-stained smears were prepared every 24 h for four days.

The subject of a further data set is Plasmodium species. The arrangement: method as in earlier work. Conditions: ATR combined with quinine; cited from earlier work.
The next data set concerns equine RBCs (T. equi). Briefly: Impact of ATR pretreatment of equine RBCs on later parasite proliferation. It is filed as cell-based. Conditions: 400 µM ATR for 3 and 6 h, then T. equi subculture. The procedure:
as §2

The next data set deals with HFFs. Kind of data set: Cytotoxicity assay (CCK-8 cell viability). It is filed as cell-based, human. The conditions noted are these: for EC50: HFFs, 24 h, CCK-8. The protocol: Cultures of human foreskin fibroblast (HFF; HFF-1 ATCC® SCRC-1041™), Madin–Darby bovine kidney (MDBK; ECACC) and mouse embryonic fibroblast (NIH/3T3; ATCC® CRL-1658™) cells were retrieved from −80 °C stock and cultured continuously at 37 °C under atmosphere 5% CO2 in our laboratory. The NIH/3T3 and HFFs cells were maintained in Dulbecco Modified Eagle’s Medium (DMEM; Gibco, Grand Island, NY, USA), while MDBK cell line grown in Minimum Essential Medium Eagle (MEM; Gibco). Each medium was treated with 0.5% penicillin/streptomycin (Gibco), 10% inactivated fetal bovine serum and 2 mM glutamine. Every 72 to 96 h, the medium was replaced, and once 80% confluence was reached, the cell collection was performed by sub-culture protocol. To confirm the absence of mycoplasma contamination, 4,6-diamidino-2-phenylindole dihydrochloride stain (Sigma-Aldrich) was used.
The cell viability test was conducted in a 96-well plate as described elsewhere. Briefly, an aliquot of (100 µL) cells was implanted at a concentration of 5 × 10^4 cells/mL in DMEM or MEM with fetal bovine serum and incubated overnight under atmosphere 5% CO2 at 37 °C for attachment. Using two-fold dilutions, aliquots (10 µL) of drugs were added in triplicate per well to attain final concentrations of 50 to 1000 µM and further incubated for 24 h. The positive control wells containing cells mixed with the medium in 0.4% DMSO, whereas the negative control wells containing culture medium only. After a 24-h incubation, Cell Counting Kits-8 (CCK-8, 10 µL) was added to each well and then plate incubation was conducted for an additional 3 h and a microplate reader was used to assess the absorbance at 450 nm.

A value given as a limit tells only on which side of the number the result lay.

Consider `COC(=O)c1c(C)cc(OC(=O)c2c(C)cc(O)c(C=O)c2O)c(C)c1O` [ATR, Atranorin], for which the Viability result in the data set on B. divergens (A1 = 0.25× IC50, 11.3 µM) is “+”; in the data set with B. divergens (A2 = 0.5× IC50, 22.6 µM) it was “+”; in the data set on B. divergens (A3 = 1× IC50, 45.2 µM), “+”; in the data set with B. divergens (A4 = 2× IC50, 90.4 µM), “+”; in the data set with B. divergens (A5 = 4× IC50, 180.8 µM), “cleared and did not revive and –”; in the data set with B. divergens (A6 = 6× IC50, 271.2 µM), “–”. Further, the Viability entry is “+” with B. bovis (A1 = 0.25× IC50, 24.6 µM); “+” with B. bovis (A2 = 0.5× IC50, 49.2 µM); “+” in the data set on B. bovis (A3 = 1× IC50, 98.4 µM); “completely suppressed and did not revive and –” with B. bovis (A4 = 2× IC50, 196.8 µM); “–” in the data set with B. bovis (A5 = 4× IC50, 393.6 µM); “–” with B. bovis (A6 = 6× IC50, 590.4 µM). Also, the Viability result is “+” with T. equi (A1 = 0.25× IC50, 17.8 µM); “+” with T. equi (A2 = 0.5× IC50, 35.6 µM); “+” in the data set with T. equi (A3 = 1× IC50, 71.3 µM); “+” in the data set on T. equi (A4 = 2× IC50, 142.6 µM); “+” in the data set with T. equi (A5 = 4× IC50, 285.2 µM); “suppressed and –” with T. equi (A6 = 6× IC50, 427.8 µM). In addition, the Viability entry in the data set on B. caballi (A1 = 0.25× IC50, 11.65 µM) was “+”; in the data set on B. caballi (A2 = 0.5× IC50, 23.3 µM), “+”; in the data set with B. caballi (A3 = 1× IC50, 46.6 µM) it was “+”; in the data set on B. caballi (A4 = 2× IC50, 93.2 µM), “completely suppressed and did not revive and –”; in the data set on B. caballi (A5 = 4× IC50, 186.4 µM), “–”; in the data set with B. caballi (A6 = 6× IC50, 279.6 µM), “–”. The Viability result was “+” with B. bigemina (A1 = 0.25× IC50, 16.1 µM); “+” in the data set with B. bigemina (A2 = 0.5× IC50, 32.25 µM); “+” with B. bigemina (A3 = 1× IC50, 64.5 µM); “completely suppressed and did not revive and –” in the data set with B. bigemina (A4 = 2× IC50, 129 µM); “–” in the data set with B. bigemina (A5 = 4× IC50, 258 µM); “–” with B. bigemina (A6 = 6× IC50, 387 µM). For the same compound, the IC50 in the data set on hepatitis C virus (HCV) is 22.3 ± 8 µM. The cytotoxic action entry in data set [1] is given as “mild cytotoxic action”. Further, the “parasite proliferation in ATR-pretreated RBCs versus untreated RBCs” value (in data set [2]; with equine RBCs (T. equi)) was “did not show a significant difference” each time. In addition, the “combined treatment efficacy with quinine” value in the data set on Plasmodium species is recorded as “slight antagonistic efficacy”. The “Selective Index HFFs” value in the data set with HFFs (EC50 HFFs / IC50 B. bigemina) was determined as 11.6; with HFFs (EC50 HFFs / IC50 B. bovis) it was 7.6; in the data set on HFFs (EC50 HFFs / IC50 B. caballi), 16.1; with HFFs (EC50 HFFs / IC50 B. divergens), 16.6; in the data set on HFFs (EC50 HFFs / IC50 T. equi), 10.6. Further, in the data set with HFFs (Homo sapiens), a half-maximal effect (EC50) was put at 750 ± 15 µM.

For the compound `O=C1C(O)=C([C@H]2CC[C@H](c3ccc(Cl)cc3)CC2)C(=O)c2ccccc21` [AV, atovaquone], the “Selective Index HFFs” value with HFFs (EC50 HFFs / IC50 B. bigemina) is “˃142.7”; with HFFs (EC50 HFFs / IC50 B. bovis) it was “˃2564”; with HFFs (EC50 HFFs / IC50 B. caballi), “˃980.4”; in the data set with HFFs (EC50 HFFs / IC50 B. divergens) it was “˃2631”; with HFFs (EC50 HFFs / IC50 T. equi), “˃1052”. For the same compound, the EC50 with HFFs (Homo sapiens) was > 100 µM.

With `CC(=O)NCC(=O)O.CC(=O)NCC(=O)O.N=C(N)c1ccc(N=NNc2ccc(C(=N)N)cc2)cc1` [DA, diminazene aceturate], the “Selective Index HFFs” value is recorded as “˃147.1” in the data set on HFFs (EC50 HFFs / IC50 B. bigemina); “˃285.7” in the data set on HFFs (EC50 HFFs / IC50 B. bovis); “˃5000” in the data set on HFFs (EC50 HFFs / IC50 B. caballi); “˃232.5” with HFFs (EC50 HFFs / IC50 B. divergens); “˃140.8” with HFFs (EC50 HFFs / IC50 T. equi). Further, the EC50 in the data set with HFFs was > 100 µM.
